# In patent US11912713B2, “7-membered aza-heterocyclic containing delta-opioid receptor modulating compounds, methods of using and making the same” (Trevena, Inc., priority 2017, dated 2024):
# Legend:
# [1] = system: adult male C57 mice; test: Tail suspension test (TST); format: in vivo, mouse
# Protocol: The experiments were performed using adult male C57 mice (6-10 weeks of age, 20-30 g, Hilltop Lab, PA). The mice were housed in standard rodent cages with stainless steel mesh wire bar lids in groups of 4 with controlled temperature and light cycle (6:00 a.m.-6:00 p.m.). Animals were given free access to food (Harlan Teklad Global 18% protein (Madison, WI)) and water during a minimum 2-day habituation period to the laboratory. Animals that were used in the study were handled, housed, and sacrificed (using compressed CO2) in accord with the current NIH guidelines regarding the use and care of laboratory animals, and all applicable local, state, and federal regulations and guidelines. Animals are identified by cage number, and by markings applied to the proximal tip of the tail using a permanent marker. Group sizes (n=8, and therefore 30-50 animals per study) provide reliable estimates of treatment effects, and this species and strain of mouse has been recognized as appropriate for pharmacology studies.
# To measure efficacy of the compounds the compounds were tested using a tail suspension test. The tail suspension test is a behavioral test used to evaluate the efficacy of antidepressant drugs in rodents. In the TST, mice (n=8/group) were suspended by the tail with tape approximately 30-50 cm above the lab bench. Mice are positioned such that the base of their tail is perpendicular to the lab bench. Each mouse is given 1 trial that last 6 minutes. The total duration of immobility is calculated as the percentage of time that the mouse is immobile. The duration of immobility is the main parameter measured. This is calculated from the cumulated time during which the animals is absent of initiated movements including passive swaying. When antidepressant drugs are administered, immobility is decreased by a variety of classes of antidepressant drugs. One or more of the compounds show antidepressant activity.
# [2] = target: T1, delta-opioid receptor (hDOR) (Homo sapiens, UniProt P41143); test: cAMP assay (receptor G-protein mediated response); format: cell-based; settings: efficacy, normalized against DPDPE
# Protocol: (§1) Clonal stable lines were subsequently selected under G418.
# (§2) Cell lines were grown adherently in Minimum Essential Media (Cellgro cat #10-010-CM) containing 10% fetal bovine serum (Hyclone cat #SH30071.03), 4 mM glutamine (Cellgro cat #25-005-CI), 150 ug/ml hygromycin B (Cellgro cat #30-240-CR), 150 ug/ml G418 (Cellgro cat #30-234-CR), and 50 u/50 ug penicillin/streptomycin (Lonza cat #17-603E). Prior to the assay cells were removed from the flasks with CellStripper (Cellgro cat #25-056-CI), repeatedly pipetted to disperse cells, and spun at low speed for 5 min at room temperature. Cells were then resuspended at 250,000 cells/ml in growth media and plated at 5,000 cells/well in 384 well plates (Greiner part #784080). Plates were incubated overnight at 37° C., 5% CO2 in a humidified incubator.
# Receptor G-protein mediated responses were determined by measuring changes in intracellular cAMP using CisBio HTRF cAMP HiRange kit (cat #62AM6PEJ) based on time-resolved fluorescence resonance energy transfer (TR-FRET). […] Following a 30 minute incubation at 37° C. the components of the cAMP HiRange kit were added as directed and the plates were read after 1 hour on a BMG PheraStar plate reader. Responses were measured as the ratio of fluorescence at 665 nm/620 nm per manufacturer's instructions.
# [3] = target: T1, delta-opioid receptor (hDOR); test: β-Arrestin recruitment assay (PathHunter); format: cell-based
# Protocol: as §1, §2
# Receptor mediated beta-arrestin recruitment was determined using the DiscoveRx β-arrestin PathHunter Detection kit (cat #93-0001). In this system, β-Arrestin is fused to an N-terminal deletion mutant of β-galactosidase (termed the enzyme acceptor of EA) and the GPCR of interest is fused to a smaller (42 amino acids), weakly complementing fragment termed ProLink™. […] Following a 60 minute incubation at 37° C. the components of the DiscoveRx β-arrestin PathHunter Detection kit were added as directed and the plates were read after 1 hour on a BMG PheraStar plate reader.
# [4] = system: mu- and kappa-opioid receptors; settings: versus mu- and kappa-opioid receptors
# From the text: Plasmids encoding delta-opioid receptor (Accession NP_000902), mu-opioid receptor (Accession NP_000905) and kappa-opioid receptor (Accession Assession NP_000903) were generated in the pCMV-Prolink backbone and transfected into an EA-arrestin parental human embryonic kidney (HEK-293) cell line from DiscoveRx Corporation. Clonal stable lines were subsequently selected under G418.
# The values are normalized against DPDPE ([D-Pen2,5]Enkephalin, [D-Pen2,D-Pen5]Enkephalin), which is a known agonist of the receptor. Compound selectivity was also evaluated by testing compounds on the mu- and kappa-opioid receptors, the values from which were normalized against DAMGO ([D-Ala2, N-Me-Phe4, Gly5-ol]-Enkephalin acetate salt) and U69,593, respectively.
# T1 sequence (P41143 whole entry): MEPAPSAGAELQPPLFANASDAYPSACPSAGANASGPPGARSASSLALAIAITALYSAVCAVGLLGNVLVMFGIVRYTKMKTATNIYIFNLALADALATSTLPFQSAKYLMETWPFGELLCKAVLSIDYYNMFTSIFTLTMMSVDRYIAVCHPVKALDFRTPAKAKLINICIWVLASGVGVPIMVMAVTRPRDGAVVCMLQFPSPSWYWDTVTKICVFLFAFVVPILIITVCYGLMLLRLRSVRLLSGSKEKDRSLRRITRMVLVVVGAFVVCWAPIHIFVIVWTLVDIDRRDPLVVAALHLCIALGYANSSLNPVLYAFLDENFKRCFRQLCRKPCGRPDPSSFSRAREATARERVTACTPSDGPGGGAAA
structure (smiles),measurement,setting,value
"CCCN1CC[C@@H](COc2ccc3c(c2)C(=O)NC3)[C@H](c2ccc(OC)cc2)CC1 (racemic) [Compound C0004, (±)-6-{((trans)-5-(4-methoxyphenyl)-1-propylazepan-4-yl]methoxy}-2,3-dihydro-1H-isoindol-1-one]",Active TST Dose,[1]; route sc,≤30 mg/kg
"CCCN1C2CCC1CC(c1ccc(OC)cc1)=C(COc1ccc3c(c1)C(=O)NC3)C2 (racemic) [Compound C0066, 6-{[4-(4-methoxyphenyl)-9-propyl-9-azabicyclo[4.2.1]non-3-en-3-yl]methoxy}-2,3-dihydro-1H-isoindol-1-one]",Active TST Dose,[1]; route sc,≤10 mg/kg
"CCCN1C2CCC1CC(c1ccc(OC)cc1)C(CCc1ccc3c(c1)C(=O)NC3)C2 (stereo not drawn) [Compound C0084, 6-{2-((cis)-4-(4-methoxyphenyl)-9-propyl-9-azabicyclo[4.2.1]nonan-3-yl]ethyl}-2,3-dihydro-1H-(trans)-isoindol-1-one]",Active TST Dose,[1]; route sc,≤30 mg/kg
"COc1ccc(C2CCN(CCc3ccccc3)C(C)CC2COc2ccc3c(c2)C(=O)NC3)cc1 (stereo not drawn) [Compound C0457, 6-{[(trans)-5-(4-methoxyphenyl)-2-methyl-1-(2-phenylethyl)azepan-4-yl]methoxy}-2,3-dihydro-1H-isoindol-1-one]",Active TST Dose,[1]; route po,≤60 mg/kg
Fc1ccc([C@@H]2CCNC[C@H]2COc2ccc3c(c2)OCO3)cc1 [Paroxetine],hDOR G Span,[2],<100
same,hDOR B Span,"[3]; efficacy, normalized against DPDPE",<100
same,EC50,"[3]; β-arrestin recruitment, HEK-293 cells, read-out: hDOR B pEC50 (converted)",> 1000 nM
same,selectivity for the delta-opioid receptor,[4],non-selectivity
